The source of these data is patent publication US20180044306A1, “1,3,4-THIADIAZOL-2-YL-BENZAMIDE DERIVATIVES AS INHIBITORS OF THE WNT SIGNALLING PATHWAY” (Bayer Pharma Aktiengesellschaft, priority 2015, published 2018).

The test system of one assay is HCT116-FOP. Kind of assay: Control reporter assay, HCT116 cells with FOP control vector (non-functional TCF elements). Format: cell-based. Particulars: Homo sapiens, HCT-116, luciferase expression, 36 hours incubation, dilution series 50 μM to 15 nM, read-out: HCT116-FOP IC50 [M] mol/L]. As to the method: In a parallel approach, HCT116 cells were cotransfected with the FOP control vector and pcDNA3. The FOP vector is identical to the TOP construct, but it contains instead of functional TCF elements a randomized, non-functional sequence. For this transfection a stable transfected cell line was generated as well.
(§1) In preparation of the assay, the two cell lines were plated 24 hours before at 10000 cells per well of a 384 micro titre plate (MTP) in 30 μL growth medium. Selective inhibitory activity for small molecules on the mutated Wnt pathway was determined after parallel incubation of both (TOP and FOP) HCT116 reporter cell lines with a compound dilution series from 50 μM to 15 nM in steps of 3.16-fold dilutions in CAFTY buffer (130 mM NaCI, 5 mM KCI, 20 mM HEPES, 1 mM MgCl2, 5 mM NaHCO3, pH 7.4) containing 2 mM Ca^2+ and 0.01% BSA. The compounds were thereby serially prediluted in 100% DMSO and thereafter in addition 50 fold into the CAFTY compound dilution buffer (described above). From this dilution 10 μL were added to the cells in 30 μL growth medium and incubated for 36 hours at 37° C. and 5% CO2. Thereafter luciferase assay buffer (1:1 mixture of luciferase substrate buffer (20 mM Tricine, 2.67 mM MgSO4, 0.1 mM EDTA, 4 mM DTT, 270 μM Coenzyme A, 470 μM Luciferin, 530 μM ATP, ph adjusted to pH 7.8 with a sufficient volume of 5M NaOH) and Triton buffer (30 mL Triton X-100, 115 mL glycerol, 308 mg Dithiothreitol, 4.45 g Na2HPO4. 2 H2O, 3.03 g TRIS HCl, ad 1I H2O, pH 7.8) was added as equal volume to the compound solution on the cells to determine luciferase expression as a measure of Wnt signaling activity in a luminometer.

The subject of assay [1] is constitutive active colorectal cancer cell (CRC) Wnt pathway (HCT116-TOP). The experiment in a line: Cellular reporter assay, HCT116 Super TopFlash (TOP), constitutive active Wnt pathway. Format: cell-based. The note with it: Homo sapiens, HCT-116; HCT116 Super TopFlash reporter cells, luciferase expression, 36 hours incubation, dilution series 50 μM to 15 nM. Here is the method: In order to discover and characterize small molecules which inhibit the constitutive active colorectal cancer cell (CRC) Wnt pathway, a cellular reporter assay was employed. The corresponding assay cell was generated by transfection of the colorectal cancer cell line HCT116 (ATCC, #CCL-247) with the Super TopFlash vector (Morin, Science 275, 1997, 1787-1790; Molenaar et al., Cell 86 (3), 1996, 391-399). The HCT116 cell line is cultivated at 37° C. and 5% CO2 in DMEM/F-12 (Life Technologies, #11320-074), supplemented with 2 mM glutamine, 20 mM HEPES, 1.4 mM pyruvate, 0.15% Na-bicarbonate and 10% foetal bovine serum (GIBCO, #10270), this cancer cell line is pathophysiological relevant since it carries a deletion of position S45 in the β-catenin gene, leading to constitutive active Wnt signaling. Stable transfectants were generated by cotransfection with pcDNA3 and selection of stable transfected cells with 1 mg/ml G418.
as §1
Background: In a reporter assay the amount or activity of a reporter protein is the signal.

For `CC(=O)N1CCN(c2nnc(NC(=O)c3ccc(OC(F)(F)F)c(NC(=O)CN4CCN(C)CC4)c3)s2)CC1` [Example 18, N-[5-(4-acetylpiperazin-1-yl)-1,3,4-thiadiazol-2-yl]-3-{[(4-methylpiperazin-1-yl)-acetyl]amino}-4-(trifluoromethoxy)benzamide], the IC50 with HCT116-FOP was not below 5e-05 M; in assay [1], 3.15 µM.
The corresponding values for `CN1CCN(CC(=O)Nc2cc(C(=O)Nc3nnc(N4CCN(C(=O)C5CC5)CC4)s3)ccc2OC(F)(F)F)CC1` [Example 9] are 1.8e-05 M and 0.83 µM.
The corresponding values for `O=C(CN1CCOCC1)Nc1cc(C(=O)Nc2nnc(N3CCCCC3)s2)ccc1OC(F)(F)F` [Example 31, 3-[(morpholin-4-ylacetyl)-amino]-N-[5-(piperidin-1-yl)-1,3,4-thiadiazol-2-yl]-4-(trifluoromethoxy)benzamide] are not below 5e-05 M and 34.1 µM.
The corresponding values for `COC1CCN(c2nnc(NC(=O)c3ccc(OC(F)(F)F)c(NC(=O)CN4CCN(C)CC4)c3)s2)CC1` [Example 11, N-{5-(4-methoxypiperidin-1-yl)-1,3,4-thiadiazol-2-yl]-3-{[(4-methylpiperazin-1-yl)acetyl]amino}-4-(trifluoromethoxy)benzamide] are not below 5e-05 M and 0.22 µM.
Turning to `CN1CCN(CC(=O)Nc2cc(C(=O)Nc3nnc(N4CCC(O)CC4)s3)ccc2OC(F)(F)F)CC1` [Example 14, N-[5-(4-hydroxypiperidin-1-yl)-1,3,4-thiadiazol-2-yl]-3-{[(4-methylpiperazin-1-yl)acetyl]amino}-4-(trifluoromethoxy)benzamide], the IC50 in the assay on HCT116-FOP is not below 5e-05 M; in assay [1], 1.45 µM.
As to `CN(C)C(=O)N1CCN(c2nnc(NC(=O)c3ccc(OC(F)(F)F)c(NC(=O)CN4CCOCC4)c3)s2)CC1` [Example 33], the IC50 in the assay on HCT116-FOP is not below 5e-05 M; in assay [1] it was 50 µM.
The corresponding values for `CN(C)S(=O)(=O)N1CCN(c2nnc(NC(=O)c3ccc(OC(F)(F)F)c(NC(=O)CN4CCOCC4)c3)s2)CC1` [Example 15, N-{5-[4-(dimethylsulfamoyl)-piperazin-1-yl]-1,3,4-thiadiazol-2-yl}-3-[(morpholin-4-ylacetyl)-amino]-4-(trifluoromethoxy) benzamide] are not below 5e-05 M and 1.99 µM.
The corresponding values for `CN1CCN(CC(=O)Nc2cc(C(=O)Nc3nnc(N4CCN(S(=O)(=O)N(C)C)CC4)s3)ccc2OC(F)(F)F)CC1` [Example 19, N-{5-[4-(dimethylsulfamoyl)-piperazin-1-yl]-1,3,4-thiadiazol-2-yl}-3-{[(4-methylpiperazin-1-yl)acetyl]-amino}-4-(trifluoromethoxy)-benzamide] are not below 5e-05 M and 3.8 µM.
The corresponding values for `CN1CCN(CC(=O)Nc2cc(C(=O)Nc3nnc(N4CCC(C)(O)CC4)s3)ccc2OC(F)(F)F)CC1` [Example 8, N-[5-(4-hydroxy-4-methylpiperidin-1-yl)-1,3,4-thiadiazol-2-yl]-3-{[(4-methylpiperazin-1-yl)pacetyl]amino}-4-(trifluoromethoxy)benzamide] are not below 5e-05 M and 0.655 µM.
Turning to `CCOC(=O)N1CCN(c2nnc(NC(=O)c3ccc(OC(F)(F)F)c(NC(=O)CN4CCOCC4)c3)s2)CC1` [Example 13, ethyl 4-[5-({3-[(morpholin-4-yl-acetyl)amino]-4-(trifluoromethoxy)benzoyl}-amino)-1,3,4-thiadiazol-2-yl]piperazine-1-carboxylate], the values for the IC50 (in the assay on HCT116-FOP; in assay [1]) were not below 5e-05 M and 1.4 µM, respectively.
The corresponding values for `CC(C)(C)OC(=O)N1CCN(c2nnc(NC(=O)c3ccc(OC(F)(F)F)c(NC(=O)CN4CCOCC4)c3)s2)CC1` [Example 3, tert-butyl 4-[5-({3-[(morpholin-4-ylacetyl)amino]-4-(trifluoromethoxy)benzoyl}amino)-1,3,4-thiadiazol-2-yl]piperazine-1-carboxylate] are not below 5e-05 M and 0.086 µM.
